What was measured:
prostate line LNCap = test: In vitro cell culture growth assay (MTS), LNCap; format: cell-based, human; conditions: Homo sapiens, LNCaP, 72 h, LNCap cells, three days after drug treatment;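 further: viable cell density read by absorbance at 490 nm, growth expressed as percent of vehicle-treated cells on the same plate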
PI3K = PI3K (Homo sapiens, UniProt P42336); test: Fluorescence polarization assay for PI3K; format: biochemical; conditions: PI3Kα; read-out: PI3Kα IC50;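 further: PI3K kinase reaction on PIP2 with ATP, 30-60 min, product sensed by GST-GRP with red probe in fluorescence polarization (mP), controls without enzyme and at zero time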
Chain of PI3K (P42336 whole entry): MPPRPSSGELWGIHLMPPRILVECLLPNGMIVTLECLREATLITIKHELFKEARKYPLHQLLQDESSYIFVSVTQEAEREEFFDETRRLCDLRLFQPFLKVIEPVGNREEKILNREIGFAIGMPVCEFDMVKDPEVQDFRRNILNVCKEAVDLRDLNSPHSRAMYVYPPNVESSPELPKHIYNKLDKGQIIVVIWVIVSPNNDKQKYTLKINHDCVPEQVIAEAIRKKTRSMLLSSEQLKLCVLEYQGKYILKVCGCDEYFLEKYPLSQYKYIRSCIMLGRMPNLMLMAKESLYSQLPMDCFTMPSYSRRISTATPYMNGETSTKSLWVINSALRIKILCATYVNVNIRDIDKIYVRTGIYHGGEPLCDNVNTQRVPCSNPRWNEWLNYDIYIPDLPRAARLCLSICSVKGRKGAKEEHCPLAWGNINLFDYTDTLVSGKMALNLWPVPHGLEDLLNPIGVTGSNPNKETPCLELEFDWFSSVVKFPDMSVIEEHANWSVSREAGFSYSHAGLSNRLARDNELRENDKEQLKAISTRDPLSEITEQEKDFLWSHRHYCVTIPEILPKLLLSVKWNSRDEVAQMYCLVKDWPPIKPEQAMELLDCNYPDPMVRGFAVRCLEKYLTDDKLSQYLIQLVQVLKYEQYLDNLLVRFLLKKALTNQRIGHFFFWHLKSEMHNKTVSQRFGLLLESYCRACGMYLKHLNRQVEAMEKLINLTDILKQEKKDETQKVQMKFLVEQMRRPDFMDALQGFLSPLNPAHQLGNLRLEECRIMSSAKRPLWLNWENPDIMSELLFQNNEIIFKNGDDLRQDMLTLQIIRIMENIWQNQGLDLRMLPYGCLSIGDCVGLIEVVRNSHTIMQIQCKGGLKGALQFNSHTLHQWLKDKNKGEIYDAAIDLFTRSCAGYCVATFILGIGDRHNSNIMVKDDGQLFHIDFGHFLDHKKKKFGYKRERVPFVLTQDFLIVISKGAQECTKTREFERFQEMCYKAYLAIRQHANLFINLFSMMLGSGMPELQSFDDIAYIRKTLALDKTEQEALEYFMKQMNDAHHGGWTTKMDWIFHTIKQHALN
Chain of PI3K (P27986 whole entry partner): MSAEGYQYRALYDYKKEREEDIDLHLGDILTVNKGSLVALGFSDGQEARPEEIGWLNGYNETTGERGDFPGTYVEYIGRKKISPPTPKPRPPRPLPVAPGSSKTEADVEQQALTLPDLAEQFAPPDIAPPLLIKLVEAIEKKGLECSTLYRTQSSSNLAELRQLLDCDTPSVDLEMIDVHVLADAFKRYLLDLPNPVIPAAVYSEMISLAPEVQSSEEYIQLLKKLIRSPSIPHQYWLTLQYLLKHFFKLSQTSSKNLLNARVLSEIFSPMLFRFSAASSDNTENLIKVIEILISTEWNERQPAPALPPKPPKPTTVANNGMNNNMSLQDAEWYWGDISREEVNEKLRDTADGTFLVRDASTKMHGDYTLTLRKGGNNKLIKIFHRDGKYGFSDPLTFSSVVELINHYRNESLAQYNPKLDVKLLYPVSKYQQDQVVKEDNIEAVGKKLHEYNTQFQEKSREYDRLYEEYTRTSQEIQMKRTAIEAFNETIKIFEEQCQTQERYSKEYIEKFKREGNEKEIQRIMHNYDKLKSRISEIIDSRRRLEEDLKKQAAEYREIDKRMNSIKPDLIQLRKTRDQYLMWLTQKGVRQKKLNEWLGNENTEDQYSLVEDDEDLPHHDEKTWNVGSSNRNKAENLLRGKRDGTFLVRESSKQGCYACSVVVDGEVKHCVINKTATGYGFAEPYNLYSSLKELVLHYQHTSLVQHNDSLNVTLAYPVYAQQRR

breast line MDA468 = test: In vitro cell culture growth assay (MTS), MDA468; format: cell-based, human; conditions: Homo sapiens, 72 h, MDA468 cells, three days after drug treatment
In short: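 Growth measured as percent of same-plate vehicle control by MTS metabolic dye conversion (A490). Breast MDA468 and prostate LNCap cells, plated a day ahead, were exposed to compounds for 3 days.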

CC(C)(C)OC(=O)N1CCC(n2ncc3c(N4CCOCC4)nc(-c4ccc(NC(=O)Nc5ncccn5)cc4)nc32)CC1 [Compound 886, tert-butyl 4-(4-morpholin-4-yl-6-{4-[(pyrimidin-2-ylcarbamoyl)amino]phenyl}-1H-pyrazolo[3,4-d]pyrimidin-1-yl)piperidine-1-carboxylate]
IC50 (prostate line LNCap): 2600 nM | IC50 (PI3K): 1230 nM | IC50 (breast line MDA468): 6700 nM

O=C(Nc1ccccc1)Nc1cc(F)c(-c2nc(N3CCOCC3)c3cnn(C4CCN(C(=O)c5cccnc5)CC4)c3n2)cc1F [Example 469, 1-(2,5-difluoro-4-{4-morpholin-4-yl-1-[1-(pyridin-3-ylcarbonyl)piperidin-4-yl]-1H-pyrazolo[3,4-d]pyrimidin-6-yl}phenyl)-3-phenylurea]
IC50 (prostate line LNCap): 170 nM | IC50 (PI3K): 173 nM | IC50 (breast line MDA468): 600 nM

COC(=O)Nc1ccc(-c2nc(N3CCOCC3)c3cnn(C4CCN(Cc5ccccc5Cl)CC4)c3n2)cc1 [Compound 455, methyl (4-{1-[1-(2-chlorobenzyl)piperidin-4-yl]-4-morpholin-4-yl-1H-pyrazolo[3,4-d]pyrimidin-6-yl}phenyl)carbamate]
IC50 (prostate line LNCap): 2500 nM | IC50 (PI3K): 786 nM | IC50 (breast line MDA468): 5200 nM

CNC(=O)Nc1ccc(-c2nc(N3CCOCC3)c3cnn(C4CCN(C(=O)c5ccc(C)cc5)CC4)c3n2)cc1 [Compound 613, 1-methyl-3-(4-{1-[1-(4-methylbenzoyl)piperidin-4-yl]-4-morpholin-4-yl-1H-pyrazolo[3,4-d]pyrimidin-6-yl}phenyl)urea]
IC50 (prostate line LNCap): < 27 nM | IC50 (PI3K): 42 nM | IC50 (breast line MDA468): 85 nM

COC(=O)Nc1ccc(-c2nc(N3CCOCC3)c3cnn(C4CCN(Cc5ccc(F)cc5)CC4)c3n2)cc1 [Compound 450, methyl (4-{1-[1-(4-fluorobenzyl)piperidin-4-yl]-4-morpholin-4-yl-1H-pyrazolo[3,4-d]pyrimidin-6-yl}phenyl)carbamate]
IC50 (prostate line LNCap): 1200 nM | IC50 (PI3K): 750 nM | IC50 (breast line MDA468): 2600 nM

CN(C)CC(=O)Nc1ccc(-c2nc(N3CCOCC3)c3cnn(C4CCCCO4)c3n2)cc1 (stereo not drawn) [Compound 521, N2,N2-dimethyl-N-{4-[4-morpholin-4-yl-1-(tetrahydro-2H-pyran-2-yl)-1H-pyrazolo[3,4-d]pyrimidin-6-yl]phenyl}glycinamide]
IC50 (prostate line LNCap): 12000 nM | IC50 (PI3K): 9000 nM | IC50 (breast line MDA468): 40000 nM

O=C(NCC1CC1)Nc1ccc(-c2nc(N3CCOCC3)c3cnn(C4CCN(Cc5ccccc5)CC4)c3n2)cc1 [Compound 508, 1-{4-[1-(1-benzylpiperidin-4-yl)-4-morpholin-4-yl-1H-pyrazolo[3,4-d]pyrimidin-6-yl]phenyl}-3-(cyclopropylmethyl)urea]
IC50 (prostate line LNCap): 700 nM | IC50 (PI3K): 384 nM | IC50 (breast line MDA468): 3000 nM

CNC(=O)Nc1ccc(-c2nc(N3CCOCC3)c3cnn(C4CC[S+]([O-])CC4)c3n2)cc1 (stereo not drawn) [Compound 868, 1-methyl-3-{4-[4-morpholin-4-yl-1-(1-oxidotetrahydro-2H-thiopyran-4-yl)-1H-pyrazolo[3,4-d]pyrimidin-6-yl]phenyl}urea]
IC50 (prostate line LNCap): 1200 nM | IC50 (PI3K): 80 nM | IC50 (breast line MDA468): 720 nM

CNC(=O)Nc1ccc(-c2nc(N3CCOCC3)c3cnn(C4CCN(C(=O)c5cccc(OC)c5)CC4)c3n2)cc1 [Compound 610, 1-(4-{1-[1-(3-methoxybenzoyl)piperidin-4-yl]-4-morpholin-4-yl-1H-pyrazolo[3,4-d]pyrimidin-6-yl}phenyl)-3-methylurea]
IC50 (prostate line LNCap): 35 nM | IC50 (PI3K): 75 nM | IC50 (breast line MDA468): 340 nM

O=C(NCC1CC1)Nc1ccc(-c2nc(N3CCOCC3)c3cnn(C4CCN(Cc5ccccc5)CC4)c3n2)cc1 [Example 262, 1-{4-[1-(1-benzylpiperidin-4-yl)-4-morpholin-4-yl-1H-pyrazolo[3,4-d]pyrimidin-6-yl]phenyl}-3-(cyclopropylmethyl)urea]
IC50 (prostate line LNCap): 700 nM | IC50 (PI3K): 385 nM | IC50 (breast line MDA468): 3000 nM

CNC(=O)Nc1ccc(-c2nc(N3CCOCC3)c3cnn(C4CCOCC4)c3n2)cc1 [Compound 939, 1-methyl-3-{4-[4-morpholin-4-yl-1-(tetrahydro-2H-pyran-4-yl)-1H-pyrazolo[3,4-d]pyrimidin-6-yl]phenyl}urea]
IC50 (prostate line LNCap): 140 nM | IC50 (PI3K): 44 nM | IC50 (breast line MDA468): 500 nM

O=C(CCO)Nc1ccc(-c2nc(N3CCOCC3)c3cnn(-c4ccccc4)c3n2)cc1 [Compound 139]
IC50 (prostate line LNCap): 1500 nM | IC50 (PI3K): 134 nM | IC50 (breast line MDA468): 60000 nM

CC(C)(C)OC(=O)N1CCC(n2ncc3c(N4CCOCC4)nc(-c4ccc(NC(=O)Nc5cnccn5)cc4)nc32)CC1 [Compound 885, tert-butyl 4-(4-morpholin-4-yl-6-{4-[(pyrazin-2-ylcarbamoyl)amino]phenyl}-1H-pyrazolo[3,4-d]pyrimidin-1-yl)piperidine-1-carboxylate]
IC50 (prostate line LNCap): 7300 nM | IC50 (PI3K): 716 nM | IC50 (breast line MDA468): 24000 nM

O=C(Nc1ccc(-c2nc(N3CCOCC3)c3cnn(C4CCN(Cc5ccccc5)CC4)c3n2)cc1)NN1CCCC1 [Compound 291, 1-{4-[1-(1-benzylpiperidin-4-yl)-4-morpholin-4-yl-1H-pyrazolo[3,4-d]pyrimidin-6-yl]phenyl}-3-pyrrolidin-1-ylurea]
IC50 (prostate line LNCap): 3000 nM | IC50 (PI3K): 4230 nM | IC50 (breast line MDA468): 10000 nM

CCOC(=O)N1CCC(n2ncc3c(N4CCOC[C@H]4C)nc(-c4ccc(NC(=O)NC)cc4)nc32)CC1 [Compound 888, ethyl 4-(6-{4-[(methylcarbamoyl)amino]phenyl}-4-[(3R)-3-methylmorpholin-4-yl]-1H-pyrazolo[3,4-d]pyrimidin-1-yl)piperidine-1-carboxylate]
IC50 (prostate line LNCap): 10 nM | IC50 (PI3K): 1990 nM | IC50 (breast line MDA468): 220 nM

CC(C)(C)OC(=O)N1CCC(n2ncc3c(N4CCOCC4)nc(-c4ccc(NC(=O)NCCO)cc4)nc32)CC1 [Compound 766, tert-butyl 4-[6-(4-{[(2-hydroxyethyl)carbamoyl]amino}phenyl)-4-morpholin-4-yl-1H-pyrazolo[3,4-d]pyrimidin-1-yl]piperidine-1-carboxylate]
IC50 (prostate line LNCap): 180 nM | IC50 (PI3K): 364 nM | IC50 (breast line MDA468): 410 nM

CCNC(=O)Nc1ccc(-c2nc(N3CCOCC3)c3cnn(C4CCN(C(=O)OC(C)(C)C)CC4)c3n2)cc1 [Compound 764, tert-butyl 4-(6-{4-[(ethylcarbamoyl)amino]phenyl}-4-morpholin-4-yl-1H-pyrazolo[3,4-d]pyrimidin-1-yl)piperidine-1-carboxylate]
IC50 (prostate line LNCap): 115 nM | IC50 (PI3K): 738 nM | IC50 (breast line MDA468): 370 nM

COC(=O)Nc1ccc(-c2nc(N3CCOCC3)c3cnn(C4CCN(CC(F)(F)F)CC4)c3n2)cc1 [Compound 781, methyl (4-{4-morpholin-4-yl-1-[1-(2,2,2-trifluoroethyl)piperidin-4-yl]-1H-pyrazolo[3,4-d]pyrimidin-6-yl}phenyl)carbamate]
IC50 (prostate line LNCap): 1800 nM | IC50 (PI3K): 1740 nM | IC50 (breast line MDA468): 7900 nM

CC(C)OC(=O)N1CCC(n2ncc3c(N4CCOCC4)nc(-c4ccc(N)cc4)nc32)CC1 [Compound 830, isopropyl 4-[6-(4-aminophenyl)-4-morpholin-4-yl-1H-pyrazolo[3,4-d]pyrimidin-1-yl]piperidine-1-carboxylate]
IC50 (prostate line LNCap): 1800 nM | IC50 (PI3K): 12000 nM | IC50 (breast line MDA468): 16000 nM

CONC(=O)Nc1ccc(-c2nc(N3CCOCC3)c3cnn(C4CCN(C(=O)c5cccnc5)CC4)c3n2)cc1 [Compound 553, 1-methoxy-3-(4-{4-morpholin-4-yl-1-[1-(pyridin-3-ylcarbonyl)piperidin-4-yl]-1H-pyrazolo[3,4-d]pyrimidin-6-yl}phenyl)urea]
IC50 (prostate line LNCap): 800 nM | IC50 (PI3K): 1810 nM | IC50 (breast line MDA468): 3000 nM
